Where a name gives a salt, the structure may show the parent alone. Read-outs that look alike come from different tables or passages of the source.
Columns and labels:
[1] = Water solubility of products (in words); format: physicochemical
[2] = Hygroscopicity of products (in words); format: physicochemical; conditions: product of the example
Method: "Non-hygroscopic" according to our invention means, that when exposed at 25° C. to an environment containing 60% humidity no observable uptake of water takes place within 3 weeks or this uptake is less than 0.1%. The salts are crystalline, they have melting point ranges that are different from those published before and their water-solubility is somewhat increased as compared with the salts prepared with the known methods.

[3] = Uptake of humidity in open containers at 60% humidity and 25° C. (Table VI); format: physicochemical; conditions: 60% humidity
Method: The samples were investigated in open containers, at 60% humidity and 25° C.

[4] = Solubility tests, N-(phosphonomethyl)-glycine and its salts (Table IV); format: physicochemical
Source text: Table IV illustrates some solubility values of the mono-isopropylammonium salts and di-isopropylammonium salts of N-(phosphonomethyl)-glycine on the basis of which the processes according to our invention can be reduced to practice. All solvents or solvent-mixtures can be used for our processes which show a reasonable solubility--difference between the salts and products that have to be separated.

[5] = according to prior publications; cited from earlier work

Question: For `O=C(O)CNCP(=O)(O)O` [Example I.1, mono-isopropylammonium salt of N-(phosphonomethyl)-glycine], which “solubility in water (in words)” value [1] is on record?
Answer: Its value is “readily soluble”.

Question: What about the “hygroscopicity (in words)” value [2] of the same compound?
Answer: The value was “not hygroscopic”.

Question: What does the source list for `O=C(O)CNCP(=O)(O)O` [Example I.2, mono-isopropylammonium salt of N-(phosphonomethyl)-glycine]?
Answer: solubility in water (in words) [1]: readily soluble; hygroscopicity (in words) [2]: not hygroscopic

Question: Which results are given for `O=C(O)CNCP(=O)(O)O` [Example I.12, mono-isopropylammmonium salt of N-(phosphonomethyl)-glycine]?
Answer: solubility in water (in words) [1]: readily soluble; hygroscopicity (in words) [2]: non-hygroscopic

Question: For `O=C(O)CNCP(=O)(O)O` [Example I.15, mono-isopropylammonium salt of N-(phosphonomethyl)-glycine], which “solubility in water (in words)” value [1] is on record?
Answer: Its value is “readily soluble”.

Question: What about the “hygroscopicity (in words)” value [2] of the same compound?
Answer: Its value is “non-hygroscopic”.

Question: For `O=C(O)CNCP(=O)(O)O` [Example I.18, mono-(dimethyl-ammonium)-salt of N-(phosphonomethyl)-glycine], which “solubility in water (in words)” value [1] is on record?
Answer: The value was “readily soluble”.

Question: And the “hygroscopicity (in words)” value [2]?
Answer: Its value is “non-hygroscopic”.

Question: Which “solubility in water (in words)” value [1] does the source give for `O=C(O)CNCP(=O)(O)O` [Example I.20, mono-isopropylammonium salt of N-(phosphonomethyl)-glycine] here?
Answer: Its value is “readily soluble”.

Question: And the “hygroscopicity (in words)” value [2]?
Answer: The value was “non-hygroscopic”.

Question: Which “solubility in water (in words)” value [1] does the source give for `O=C(O)CNCP(=O)(O)O` [Example I.24, mono-isopropylammonium salt of N-(phosphonomethyl)-glycine] here?
Answer: The value was “readily soluble”.

Question: And the “hygroscopicity (in words)” value [2]?
Answer: Its value is “non-hygroscopic”.

Question: With `O=C(O)CNCP(=O)(O)O` [I.7, mono-isopropylammonium salt of N-(phosphonomethyl)-glycine] as the compound, how does the “hygroscopicity (in words)” value [2] read?
Answer: The value was “non-hygroscopic”.

Question: What does the source list for `O=C(O)CNCP(=O)(O)O` [I.8, mono-isopropylammoniumsalt of N-(phosphonomethyl)-glycine]?
Answer: solubility in water (in words) [1]: readily soluble; hygroscopicity (in words) [2]: non-hygroscopic

Question: Which “hygroscopicity (in words)” value [2] does the source give for `CP(=O)(O)CCC(N)C(=O)O` (stereo not shown) [I.9, mono-isopropylammoniumsalt of (3-amino-3-carboxy-propyl)-methane-phosphinic acid] here?
Answer: Its value is “non-hygroscopic”.

Question: For `CP(=O)(O)CCC(N)C(=O)O` (stereo not shown) [I.10, mono-isopropylammoniumsalt of (3-amino-3-carboxy-propyl)-methane-phosphinic acid], which “hygroscopicity (in words)” value [2] is on record?
Answer: Its value is “non-hygroscopic”.

Question: With `O=C(O)CNCP(=O)(O)O` [I.13, mono-isopropylammmonium salt of N-(phosphonomethyl)-glycine] as the compound, how does the “solubility in water (in words)” value [1] read?
Answer: Its value is “readily soluble”.

Question: And the “hygroscopicity (in words)” value [2]?
Answer: The value was “non-hygroscopic”.

Question: Which results are given for `O=C(O)CNCP(=O)(O)O` [I.14, mono-isopropylammonium salt of N-(phosphonomethyl)-glycine]?
Answer: solubility in water (in words) [1]: readily soluble; hygroscopicity (in words) [2]: non-hygroscopic

Question: For `O=C(O)CNCP(=O)(O)O` [I.16, mono-isopropylammonium salt of N-(phosphonomethyl)-glycine], which “solubility in water (in words)” value [1] is on record?
Answer: Its value is “readily soluble”.

Question: And the “hygroscopicity (in words)” value [2]?
Answer: Its value is “non-hygroscopic”.

Question: With `O=C(O)CNCP(=O)(O)O` [I.17, mono-isopropylammonium salt of N-(phosphonomethyl)-glycine] as the compound, how does the “solubility in water (in words)” value [1] read?
Answer: The value was “readily soluble”.

Question: What about the “hygroscopicity (in words)” value [2] of the same compound?
Answer: The value was “non-hygroscopic”.

Question: With `O=C(O)CNCP(=O)(O)O` [I.19, mono-ethylammonium salt of N-(phosphonomethyl)-glycine] as the compound, how does the “solubility in water (in words)” value [1] read?
Answer: Its value is “readily soluble”.

Question: What about the “hygroscopicity (in words)” value [2] of the same compound?
Answer: Its value is “non-hygroscopic”.

Question: Which “solubility in water (in words)” value [1] does the source give for `O=C(O)CNCP(=O)(O)O` [I.21, mono-isopropylammonium salt of N-(phosphonomethyl)-glycine] here?
Answer: Its value is “readily soluble”.

Question: And the “hygroscopicity (in words)” value [2]?
Answer: Its value is “non-hygroscopic”.

Question: With `O=C(O)CNCP(=O)(O)O` [I.22, mono-isopropylammonium salt of N-(phosphonomethyl)-glycine] as the compound, how does the “solubility in water (in words)” value [1] read?
Answer: The value was “readily soluble”.

Question: And the “hygroscopicity (in words)” value [2]?
Answer: The value was “non-hygroscopic”.

Question: Which “solubility in water (in words)” value [1] does the source give for `O=C(O)CNCP(=O)(O)O` [I.23, mono-isoptopylammonium salt of N-(phosphonomethyl)-glycine] here?
Answer: The value was “readily soluble”.

Question: And the “hygroscopicity (in words)” value [2]?
Answer: The value was “non-hygroscopic”.

Question: What does the source list for `O=C(O)CNCP(=O)(O)O` [I.25, mono-isopropylammonium salt of N-(phosphonomethyl)-glycine]?
Answer: solubility in water (in words) [1]: readily soluble; hygroscopicity (in words) [2]: non-hygroscopic

Question: For `O=C(O)CNCP(=O)(O)O` [I.26, mono-isopropylammonium salt of N-(phosphonomethyl)-glycine], which “solubility in water (in words)” value [1] is on record?
Answer: The value was “readily soluble”.

Question: What about the “hygroscopicity (in words)” value [2] of the same compound?
Answer: Its value is “non-hygroscopic”.

Question: For `O=C(O)CNCP(=O)(O)O` [di-IPA salt, di-(mono-isopropylamine)-salt of N-(phosphonomethyl)-glycine], which Uptake of humidity ([3]; 1 day, listed as di-isopropyl-ammonium salt of N-(phosphonomethyl)-glycine) is on record?
Answer: The Uptake of humidity was 13.0%.

Question: And the Uptake of humidity ([3]; 2 days, listed as di-isopropyl-ammonium salt of N-(phosphonomethyl)-glycine)?
Answer: The Uptake of humidity was 14.5%.

Question: And the Uptake of humidity ([3]; 7 days, listed as di-isopropyl-ammonium salt of N-(phosphonomethyl)-glycine)?
Answer: Its Uptake of humidity is 16.1%.

Question: What about the Uptake of humidity ([3]; 14 days, listed as di-isopropyl-ammonium salt of N-(phosphonomethyl)-glycine) of the same compound?
Answer: The Uptake of humidity was 18.8%.

Question: What about the Uptake of humidity ([3]; 30 days, listed as di-isopropyl-ammonium salt of N-(phosphonomethyl)-glycine) of the same compound?
Answer: Its Uptake of humidity is 19.2%.

Question: And the Uptake of humidity ([3]; 90 days, listed as di-isopropyl-ammonium salt of N-(phosphonomethyl)-glycine)?
Answer: The Uptake of humidity was 30.9%.

Question: What about the Appearance ([3]; within 1 day) of the same compound?
Answer: Its Appearance is “sticky and hygroscopic”.

Question: And the Appearance ([3]; within 4 days)?
Answer: The Appearance was “completely liquid”.

Question: And the “solubility in water (in words)” value [1]?
Answer: Its value is “readily soluble”.

Question: And the SOLUBILITY ([4]; benzene)?
Answer: The SOLUBILITY was less than 0.1 g/L.

Question: What about the SOLUBILITY ([4]; benzyl-alcohol) of the same compound?
Answer: Its SOLUBILITY is 420 g/L.

Question: What about the SOLUBILITY ([4]; dimethyl-formamide) of the same compound?
Answer: The SOLUBILITY was 22 g/L.

Question: And the SOLUBILITY ([4]; isopropyl amine)?
Answer: The SOLUBILITY was less than 0.1 g/L.

Question: And the SOLUBILITY ([4]; methanol)?
Answer: Its SOLUBILITY is 570 g/L.

Question: What about the SOLUBILITY ([4]; n-butanol) of the same compound?
Answer: The SOLUBILITY was 35 g/L.

Question: What about the SOLUBILITY ([4]; n-propanol) of the same compound?
Answer: The SOLUBILITY was 170 g/L.

Question: What about the SOLUBILITY ([4]; propylene-glycol) of the same compound?
Answer: The SOLUBILITY was 244 g/L.

Question: Which results are given for `O=C(O)CNCP(=O)(O)O` [glyphosate, N-(phosphonomethyl)-glycine]?
Answer: SOLUBILITY ([4]; benzene): < 0.1 g/L; SOLUBILITY ([4]; benzyl-alcohol): < 0.2 g/L; SOLUBILITY ([4]; dimethyl-formamide): < 0.2 g/L; SOLUBILITY ([4]; ethanol): 0.2 g/L; SOLUBILITY ([4]; isopropanol): < 0.5 g/L; SOLUBILITY ([4]; methanol): < 0.3 g/L; SOLUBILITY ([4]; n-propanol): < 0.5 g/L; SOLUBILITY ([4]; water): 12 g/L

Question: What does the source list for `O=C(O)CNCP(=O)(O)O` [mono-IPA salt, mono-isopropylammonium salt of N-(phosphonomethyl)-glycine]?
Answer: Uptake of humidity ([3]; 1 day): 0.1%; Uptake of humidity ([3]; 2 days): 0.1%; Uptake of humidity ([3]; 7 days): 0.1%; Uptake of humidity ([3]; 14 days): 0.1%; Uptake of humidity ([3]; 30 days): 0.1%; Uptake of humidity ([3]; 90 days): 0.1%; Appearance ([3]; after 30 days): unchanged; hygroscopicity (in words) [5]: extreme hygroscopic nature; SOLUBILITY ([4]; benzene): < 0.1 g/L; SOLUBILITY ([4]; benzyl-alcohol): 0.5 g/L; SOLUBILITY ([4]; dimethyl-formamide): 1.8 g/L; SOLUBILITY ([4]; isopropyl amine): < 0.1 g/L; SOLUBILITY ([4]; methanol): 56 g/L; SOLUBILITY ([4]; n-butanol): 0.1 g/L; SOLUBILITY ([4]; n-propanol): 0.7 g/L; SOLUBILITY ([4]; propylene-glycol): 184.0 g/L; SOLUBILITY ([4]; water): 1470 g/L

Question: For `CP(=O)(O)CCC(N)C(=O)O` (stereo not shown) [mono-ammonium salt, (3-amino-3-carboxy-propyl)-methane-phosphinic acid ammonium salt], which “hygroscopicity (in words)” value [5] is on record?
Answer: The value was “hygroscopic”.

Reference: patent US5324708A, “Non-hygroscopic monoammonium salts of phosphonic and phosphinic acids” (Aklaloida Vegyeszeti Gyar Rt., priority 1991, dated 1994)
